The source of these data is the OPERA property sets (Mansouri et al. 2018).

In brackets after ≈: the same amount, converted by molar mass. Where a SMILES comes first, the peptide text is derived from it.

Details in the first data set: not given
The compound `CC12CCC(CC1=O)C(C)(C)O2` (centres undefined) returned a solubility of 119 mM (≈ 20000 µg/mL). With `C=CC(O)C(=O)OCC` (centres undefined), the solubility came out at 2310 mM (≈ 300000 µg/mL). Take `Cn1cnc2nc(Cl)nc(NN)c21`: the solubility was 72 mM (≈ 14300 µg/mL). In the case of `CC(=O)C(=O)Nc1ccccc1`, the solubility was 42.9 mM (≈ 7000 µg/mL). The same measure, in the same setting: the same measure for `CC(C)C[C@H](N)C(=O)N[C@@H](C)C(=O)NCC(=O)O` (H-Leu-Ala-Gly-OH): 127 mM (≈ 33000 µg/mL); for `O=C1OCc2ccc3ccccc3c21`: 0.494 mM (≈ 91 µg/mL); for `CC1(C)CC(C(=O)O)C(C)(C)N1` (centres undefined): 2920 mM (≈ 500000 µg/mL). In turn, `CC(C)SS(=O)C(C)C` (centres undefined) came in with a solubility of 150 mM (≈ 25000 µg/mL). `NC(CS(=O)(=O)c1ccc(Cl)cc1)C(=O)O` (centres undefined): the solubility stood at 2.93 mM (≈ 774 µg/mL). `CCC1OCCO1` displayed a solubility of 1960 mM (≈ 200000 µg/mL). The same measure, in the same setting: the same measure for `O=S(=O)(O)c1ccc(/N=N/c2c(O)ccc3ccccc23)c2ccccc12`: 68.7 mM (≈ 26000 µg/mL); for `CCCOC(=O)C(C)(C)O`: 684 mM (≈ 100000 µg/mL).

`CCOC(=O)N(C)CC` displayed a solubility of 381 mM (≈ 50000 µg/mL). In turn, `CC(S(C)(=O)=O)S(C)(=O)=O` gave a solubility of 38.1 mM (≈ 7100 µg/mL). Still for that read-out and setting: in the case of `CC12CCC(C(CO)C1=O)C2(C)C` (centres undefined) it was 610 mM (≈ 111000 µg/mL); in that of `CCC(CC)(C(N)=O)C(N)=O`, 63.2 mM (≈ 10000 µg/mL); in that of `CCOC(OCC)C(Cl)(Cl)Cl`, 22.6 mM (≈ 5000 µg/mL). `CCCCOCCOCCOC(N)=O` gave a solubility of 487 mM (≈ 100000 µg/mL). Take `Cc1ccc(NO)cc1`: the solubility was 162 mM (≈ 20000 µg/mL). As to `O=C(O)CCCNC(=O)c1ccccc1`, the solubility was found to be 62.7 mM (≈ 13000 µg/mL). On to `O=C(NCCc1c[nH]cn1)c1ccccc1`, for which the solubility stood at 232 mM (≈ 50000 µg/mL).

As for `O=S(=O)(O)c1ncc[nH]1`, the solubility came to 844 mM (≈ 125000 µg/mL).

Still in this data set, the particulars now being: 20 °C.
With `O=C1COc2ccccc2N1`, the solubility is 2.68 mM (≈ 400 µg/mL).

With `Nc1ncnc2c1ncn2[C@@H]1O[C@H](COP(=O)(O)O)[C@@H](O)[C@H]1O`, the solubility worked out at 28.8 mM (≈ 10000 µg/mL). `O=C(O)c1oc(Cl)c(Cl)c1Cl` gave a solubility of 6.04 mM (≈ 1300 µg/mL). `OCc1ccc(Cl)cc1Cl` displayed a solubility of 5.65 mM (≈ 1000 µg/mL).

As for `O/N=C1\C=CCCC1`, the solubility turned out to be 146 mM (≈ 16200 µg/mL). On the same count and under the same terms, the same measure for `Cc1ccc(O)c(CO)c1`: 485 mM (≈ 67000 µg/mL); for `CSc1cc(O)cc(O)c1`: 16 mM (≈ 2500 µg/mL); for `CC(C)(NC(N)=O)C(=O)O`: 68.4 mM (≈ 10000 µg/mL). Same read-out and setting: the same measure for `O=CCCCCCCCC(=O)O`: 110 mM (≈ 19000 µg/mL); for `COCc1ccccc1`: 24.6 mM (≈ 3000 µg/mL). Consider `COc1ccc(C(=O)O)cc1C(=O)O`, for which the solubility was 0.765 mM (≈ 150 µg/mL).

`C=CCC(C(=O)O)C(C)C(=O)O` (centres undefined) returned a solubility of 87.1 mM (≈ 15000 µg/mL). Still for that read-out and setting: the same measure for `CC(C)c1nnc(NS(=O)(=O)c2ccc(N)cc2)s1`: 0.385 mM (≈ 115 µg/mL); for `C=CCC1(CC)C(=O)NC(=O)NC1=O`: 20.5 mM (≈ 4020 µg/mL); for `NC(=O)N/N=C/[C@H](O)[C@@H](O)[C@H](O)CO`: 743 mM (≈ 154000 µg/mL). Regarding `O=C(O)CCP(=O)(O)O`, the solubility is 3170 mM (≈ 488000 µg/mL). Same read-out and setting: in the case of `CC(O)(CCl)CCl` it was 657 mM (≈ 94000 µg/mL); in that of `COc1ncc2nccnc2n1`, 77.1 mM (≈ 12500 µg/mL).

In turn, `Cc1cc(O)c(C(=O)O)c(O)c1` came in with a solubility of 8.92 mM (≈ 1500 µg/mL). Consider `O=C(O)c1c(Cl)ccc2ccccc12`, for which the solubility worked out at 4.84 mM (≈ 1000 µg/mL). With `O=C(O)C(I)=C(Br)I`, the solubility was 51.4 mM (≈ 20700 µg/mL).

For the compound `NC[C@H](O)C(=O)O`, the solubility was determined as 148 mM (≈ 15500 µg/mL).

In turn, `OCc1ccc(O)cc1` displayed a solubility of 54 mM (≈ 6700 µg/mL).

`Nc1ncc2[nH]cnc2n1` had a solubility of 61.7 mM (≈ 8330 µg/mL). Compound `O=C(O)c1occ(Br)c1Br` came in with a solubility of 8.15 mM (≈ 2200 µg/mL).

The compound `O=C(O)c1ccc(Cl)o1` came in with a solubility of 19.1 mM (≈ 2800 µg/mL). `O=c1ccc(I)c[nH]1` had a solubility of 18.1 mM (≈ 4000 µg/mL). `N#Cc1c(O)cc(Cl)[nH]c1=O` displayed a solubility of 58.6 mM (≈ 10000 µg/mL). The compound `CC(C#N)(CCC(=O)O)/N=N/C(C)(C#N)CCC(=O)O` (centres undefined) came in with a solubility of 9.81 mM (≈ 2750 µg/mL). Same read-out and setting: in the case of `COc1c(C(=O)O)cccc1C(=O)O` it was 5.1 mM (≈ 1000 µg/mL); in that of `Cc1ncnc2nc[nH]c12`, 1490 mM (≈ 200000 µg/mL); in that of `NC1=NC2=NC=NC2C(C(F)(F)F)=N1` (centres undefined), 0.733 mM (≈ 149 µg/mL). `COCc1ccc(C=O)o1` gave a solubility of 317 mM (≈ 44400 µg/mL). `Nc1nc2c(O)cccc2s1` returned a solubility of 12 mM (≈ 2000 µg/mL). Regarding `NCCCCCCNCCCCCCCCCCC(=O)O`, the solubility was 4.99 mM (≈ 1500 µg/mL). In the case of `O=c1nc[nH]c2nc(-c3ccccc3)c(-c3ccccc3)nc12`, the solubility turned out to be 0.666 mM (≈ 200 µg/mL). The compound `N#Cc1cccc(N)c1` returned a solubility of 67.7 mM (≈ 8000 µg/mL).

Compound `CC(C)(O)CCl` displayed a solubility of 1450 mM (≈ 157000 µg/mL). In turn, `OCc1ccc(I)cc1` registered a solubility of 1.79 mM (≈ 420 µg/mL). With `CC=CCC1(C)C(=O)NC(=O)N(C)C1=O` (centres undefined), the solubility stood at 28.5 mM (≈ 6000 µg/mL).

For `CCCCC1(CCCC)C(=O)NC(=O)NC1=O`, the solubility is 1.33 mM (≈ 320 µg/mL).

On to `O=C1CC(c2ccccc2)CC(=O)C1[N+](=O)[O-]` (centres undefined), for which the solubility was 21.4 mM (≈ 5000 µg/mL). As for `O=c1[nH]c2cncnc2[nH]1`, the solubility is 30.6 mM (≈ 4170 µg/mL). In turn, `CC(=O)NC(NC(C)=O)c1ccccc1` registered a solubility of 48.5 mM (≈ 10000 µg/mL). The compound `Cc1cc(C(O)(c2ccc(N)cc2)c2ccc(N)cc2)ccc1N` registered a solubility of 0.939 mM (≈ 300 µg/mL). Same read-out and setting: in the case of `Nc1ccncc1` it was 885 mM (≈ 83300 µg/mL); in that of `COC[C@@H](N)C(=O)O` (racemic), 4490 mM (≈ 535000 µg/mL).

A word on the solubility: it is the dissolved amount per volume that the medium holds.
